Data: patent publication US7977342B2, “HCV inhibiting bi-cyclic pyrimidines” (Tibotec-Virco Virology BVBA, priority 2007, dated 2011)

These compounds were tested on HCV replicons (HCV RNA replication) in Huh-7 luc/neo cells (assay: Stable replicon cell reporter assay (Huh-Luc, luciferase)). Conditions: Hepatitis C virus, 72 h; Huh-Luc (Huh-7 luc/neo) cells, HCV type 1b NS3-NS5B replicon, luciferase readout, three days incubation.
Assay type: cell-based
Text: The compounds of the present invention were examined for activity in the inhibition of HCV RNA replication in a cellular assay. […] The cellular assay was based on a bicistronic expression construct, as described by Lohmann et al. (1999) Science vol. 285 pp. 110-113 with modifications described by Krieger et al. (2001) Journal of Virology 75: 4614-4624, in a multi-target screening strategy. In essence, the method was as follows.
The assay utilized the stably transfected cell line Huh-7 luc/neo (hereafter referred to as Huh-Luc). This cell line harbored an RNA encoding a bicistronic expression construct comprising the wild type NS3-NS5B regions of HCV type 1b translated from an Internal Ribosome Entry Site (IRES) from encephalomyocarditis virus (EMCV), preceded by a reporter portion (FfL-luciferase), and a selectable marker portion (neo^R, neomycine phosphotransferase). The construct was bordered by 5′ and 3′ NTRs (non-translated regions) from HCV type 1b. Continued culture of the replicon cells in the presence of G418 (neo^R) was dependent on the replication of the HCV RNA. The stably transfected replicon cells that expressed HCV RNA, which replicated autonomously and to high levels, encoding inter alia luciferase, were used for screening the antiviral compounds.
The replicon cells were plated in 384 well plates in the presence of the test and control compounds which were added in various concentrations. Following an incubation of three days, HCV replication was measured by assaying luciferase activity (using standard luciferase assay substrates and reagents and a Perkin Elmer ViewLux™ ultraHTS microplate imager). Replicon cells in the control cultures had high luciferase expression in the absence of any inhibitor. The inhibitory activity of the compound on luciferase activity was monitored on the Huh-Luc cells, enabling a dose-response curve for each test compound. EC50 values were then calculated, which value represented the amount of the compound required to decrease by 50% the level of detected luciferase activity, or more specifically, the ability of the genetically linked HCV replicon RNA to replicate.

Question: `CNC(=O)c1cnccc1Nc1nc(-c2cc(Cl)ccc2F)nc2c1C(C)CC2` (centres unmarked) [Compound 47, 4-[2-(5-Chloro-2-fluorophenyl)-5-methyl-6,7-dihydro-5H-cyclopentapyrimidin-4-ylamino]-N-methyl-nicotinamide] was tested. Which EC50 did it give?
Answer: Its EC50 is 27.7 µM.

Question: `NNC(=O)c1cnccc1Nc1nc(-c2cc(Cl)ccc2F)nc2c1CCC2` [Compound 58] was tested. Which EC50 did it give?
Answer: The EC50 was 10.3 µM.

Question: How did the EC50 turn out when `CN(C)CCCNC(=O)c1cnccc1Nc1nc(-c2cc(Cl)ccc2F)nc2c1CCC2` [Compound 69] was run?
Answer: The EC50 was 1.8 µM.

Question: For `CNC(=O)c1cnccc1Nc1nc(-c2cc(Cl)ccc2F)nc2c1CCC2` [Compound 35], which EC50 is on record?
Answer: Its EC50 is 1.5 µM.

Question: `CC1CCc2nc(-c3cc(Cl)ccc3F)nc(Nc3ccncc3C(N)=O)c21` (centres unmarked) [Compound 46] was tested. Which EC50 did it give?
Answer: Its EC50 is 1.6 µM.

Question: `CC1(C)Cc2nc(-c3cc(Cl)ccc3F)nc(Nc3ccncc3C(N)=O)c2C1` [Compound 62, 4-[2-(5-Chloro-2-fluoro-phenyl)-6,6-dimethyl-6,7-dihydro-5H-cyclopentapyrimidin-4-ylamino]-nicotinamide] was tested. Which EC50 did it give?
Answer: Its EC50 is 0.8 µM.

Question: Which EC50 does the source give for `CC1CCc2nc(-c3cc(Cl)ccc3F)nc(Nc3ccncc3C(=O)O)c21` (centres unmarked) [Compound 49, 4-[2-(5-Chloro-2-fluorophenyl)-5-methyl-6,7-dihydro-5H-cyclopentapyrimidin-4-ylamino]-nicotinic acid] here?
Answer: Its EC50 is 13.1 µM.

Question: With `CCN(CC)CCNC(=O)c1cnccc1Nc1nc(-c2cc(Cl)ccc2F)nc2c1CCCC2` [Compound 59] as the compound, how does the EC50 read?
Answer: Its EC50 is 2 µM.

Question: `Cc1cnccc1Nc1nc(-c2cc(Cl)ccc2F)nc2c1CCC2` [Compound 20] was tested. Which EC50 did it give?
Answer: Its EC50 is 0.7 µM.

Question: With `CNC(=O)c1cnccc1Nc1nc(-c2cc(Cl)ccc2F)nc2c1CCCC2` [Compound 40] as the compound, how does the EC50 read?
Answer: Its EC50 is 7.3 µM.

Question: Which EC50 does the source give for `Cc1noc2nc(-c3cc(Cl)ccc3F)nc(Nc3ccncc3)c12` [Compound 8] here?
Answer: The EC50 was 0.4 µM.

Question: With `NC(=O)c1cnccc1Nc1nc(-c2cc(Cl)ccc2F)nc2c1CCC2` [Compound 21] as the compound, how does the EC50 read?
Answer: Its EC50 is 0.4 µM.

Question: With `Cc1cnccc1Nc1nc(-c2cc(Cl)ccc2F)nn2cccc12` [Compound 80] as the compound, how does the EC50 read?
Answer: Its EC50 is 5.8 µM.

Question: With `C[C@H](O)CNC(=O)c1cnccc1Nc1nc(-c2cc(Cl)ccc2F)nc2c1CCCC2` [Compound 57] as the compound, how does the EC50 read?
Answer: Its EC50 is 24 µM.
